# Test results reported in US9732094B2, “Arylquinazolines” (Merck Patent GmbH, priority 2013, dated 2017).
# Read-outs that look alike come from different tables or passages of the source.
# Assays:
# Kv11.1 (hERG) = Kv11.1 (hERG) (Homo sapiens (Human), UniProt Q12809); experiment: Kv11.1 (hERG) ion channel activity (patch clamp assay), HEK293 cells transfected with hERG gene; conditions: hERG patch clamp assay (cells without asterisk)
# DNA-PK = DNA-PK (Homo sapiens (Human), UniProt P78527); experiment: DNA-PK assay (biochemical), flashplate 33P-ATP kinase assay; conditions: biochemical DNA-PK assay
# In short: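 Radiometric kinase reaction in streptavidin-coated flashplates, stopped with 200 mM EDTA, then 30 min room-temperature incubation and saline washes.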
# [1] = target: DNA-PK phosphorylation at serine 2056 (Homo sapiens (Human), UniProt P78527); experiment: DNA-PK phosphorylation at serine 2056 (cellular), bleomycin-treated HCT116 cells, ELISA; format: cell-based; conditions: cellular DNA-PK phosphorylation at serine 2056, HCT116; read-out: IC50 pDNA-PK
# In short: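 Chemiluminescent ELISA read-out; phospho-specific signal normalised to total DNA-PKcs. Cells (HCT116) exposed 6 h to test compound plus 10 μM bleomycin to induce double-strand breaks; DMSO control served as blank.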
# Chain of Kv11.1 (hERG) (Q12809 whole entry): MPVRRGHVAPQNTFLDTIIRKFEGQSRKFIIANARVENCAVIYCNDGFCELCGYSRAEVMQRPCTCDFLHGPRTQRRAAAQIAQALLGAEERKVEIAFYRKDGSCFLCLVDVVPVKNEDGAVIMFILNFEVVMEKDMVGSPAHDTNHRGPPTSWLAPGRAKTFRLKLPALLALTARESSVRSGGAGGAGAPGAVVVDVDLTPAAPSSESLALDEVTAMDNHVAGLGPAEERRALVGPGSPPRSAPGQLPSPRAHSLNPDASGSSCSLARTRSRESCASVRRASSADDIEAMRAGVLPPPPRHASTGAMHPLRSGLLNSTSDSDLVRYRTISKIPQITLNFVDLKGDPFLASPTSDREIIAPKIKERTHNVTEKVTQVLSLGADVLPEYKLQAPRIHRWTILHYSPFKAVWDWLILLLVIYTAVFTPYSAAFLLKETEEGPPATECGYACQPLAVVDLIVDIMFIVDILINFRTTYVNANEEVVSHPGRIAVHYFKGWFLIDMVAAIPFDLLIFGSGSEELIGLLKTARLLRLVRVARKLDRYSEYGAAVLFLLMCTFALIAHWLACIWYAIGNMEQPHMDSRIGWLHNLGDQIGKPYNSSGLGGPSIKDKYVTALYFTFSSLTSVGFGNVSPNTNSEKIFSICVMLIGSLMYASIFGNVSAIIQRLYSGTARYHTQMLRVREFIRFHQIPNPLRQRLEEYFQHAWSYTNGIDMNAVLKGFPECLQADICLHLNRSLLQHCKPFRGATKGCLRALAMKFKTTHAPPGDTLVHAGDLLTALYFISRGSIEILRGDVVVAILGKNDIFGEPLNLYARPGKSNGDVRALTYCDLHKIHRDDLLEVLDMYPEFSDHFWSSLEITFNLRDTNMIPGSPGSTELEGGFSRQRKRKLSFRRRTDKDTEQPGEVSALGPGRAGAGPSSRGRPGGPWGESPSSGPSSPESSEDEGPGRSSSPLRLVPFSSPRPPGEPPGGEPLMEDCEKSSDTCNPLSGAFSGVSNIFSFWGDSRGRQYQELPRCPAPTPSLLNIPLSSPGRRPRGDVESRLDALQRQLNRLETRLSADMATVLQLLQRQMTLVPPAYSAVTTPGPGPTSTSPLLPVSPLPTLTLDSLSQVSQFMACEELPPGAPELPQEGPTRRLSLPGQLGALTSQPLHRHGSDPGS
SMILES,Ki (Kv11.1 (hERG); read-out: Ki [Kv1.11 hERG]),IC50 (DNA-PK),IC50 [1],Ki (Kv11.1 (hERG); Ki [Kv1.11 hERG])
"CCn1c(C(O)c2ccc(F)c(-c3ncnc4cc(N5CCOCC5)ccc34)c2)cccc1=O (stereo not drawn) [Example 398, 1-Ethyl-6-{[4-f1uoro-3-(7-morpholin-4-yl-quinazolin-4-yl)-phenyl]hydroxy-methyl}-1H-pyridin-2-one]",> 25 µM,3 to 7 nM,500 to 5000 nM,–
"OC(c1ccc(F)c(-c2ncnc3cc(N4CCOCC4)ccc23)c1)c1nnc2ccccn12 (stereo not drawn) [Example 399, [4-Fluoro-3-(7-morpholin-4-yl-quinazolin-4-yl)-phenyl]-[1,2,4]-triazolo[4,3-a]pyridin-3-ylmethanol]",> 25 µM,< 3 nM,500 to 5000 nM,–
"Cn1c(C(O)c2cc(-c3ncnc4cc(N5CCOCC5)ccc34)ccc2Cl)cccc1=O (stereo not drawn) [Example 400, 6-{[2-Chloro-5-(7-morpholin-4-yl-quinazolin-4-yl)-phenyl]hydroxy-methyl}-1-methyl-1H-pyridin-2-one]",–,< 3 nM,< 500 nM,15 to 25 µM
"Cn1c(C(O)c2cc(-c3ncnc4cc(N5CCOCC5)ccc34)ccc2F)cccc1=O (stereo not drawn) [Example 401, 6-{[2-Fluoro-5-(7-morpholin-4-yl-quinazolin-4-yl)-phenyl]hydroxy-methyl}-1-methyl-1H-pyridin-2-one]",–,3 to 7 nM,500 to 5000 nM,10 to 15 µM
"Cn1ncc2c(C(O)c3cc(-c4ncnc5cc(N6CCOCC6)ccc45)c(F)cc3Cl)ncnc21 (stereo not drawn) [Example 402, [2-Chloro-4-fluoro-5-(7-morpholin-4-yl-quinazolin-4-yl)-phenyl]-(1-methyl-1H-pyrazolo[3,4-d}-pyrimidin-4-yl)-methanol]",–,3 to 7 nM,500 to 5000 nM,15 to 25 µM
"Cn1ncc2c(C(O)c3cc(-c4ncnc5cc(N6CCOCC6)ccc45)c(F)cc3F)ncnc21 (stereo not drawn) [Example 403, [2,4-Difluoro-5-(7-morpholin-4-yl-quinazolin-4-yl)-phenyl]-(1-methyl-1H-pyrazolo[3,4-d}-pyrimidin-4-yl)-methanol]",–,3 to 7 nM,500 to 5000 nM,15 to 25 µM
"Cn1ncc2c(C(O)c3ccc(F)c(-c4ncnc5cc(N6CCOCC6)ccc45)c3)ncnc21 (stereo not drawn) [Example 404, [4-Fluoro-3-(7-morpholin-4-yl-quinazolin-4-yl)-phenyl]-(1-methyl-1H-pyrazolo[3,4-d}-pyrimidin-4-yl)-methanol]",> 25 µM,3 to 7 nM,< 500 nM,–
"OC(c1cc(-c2ncnc3cc(N4CCOCC4)ccc23)ccc1F)c1ncnc2ccsc12 (stereo not drawn) [Example 405, [2-Fluoro-5-(7-morpholin-4-yl-quinazolin-4-yl)-phenyl]thieno[3,2-d}-pyrimidin-4-yl-methanol]",< 10 µM,< 3 nM,< 500 nM,–
"OC(c1cc(-c2ncnc3cc(N4CCOCC4)ccc23)ccc1F)c1ncnc2sccc12 (stereo not drawn) [Example 406, [2-Fluoro-5-(7-morpholin-4-yl-quinazolin-4-yl)-phenyl]thieno[2,3-d}-pyrimidin-4-yl-methanol]",–,< 3 nM,< 500 nM,10 to 15 µM
"Cc1cncnc1C(C(N)=O)c1cc(-c2ncnc3cc(N4CCOCC4)ccc23)ccc1Cl (stereo not drawn) [Example 407, 2-[2-Chloro-5-(7-morpholin-4-yl-quinazolin-4-yl)-phenyl]-2-(5-methyl-pyrimidin-4-yl)-acetamide]",15 to 25 µM,< 3 nM,500 to 5000 nM,–
"COc1cncnc1C(O)c1cc(-c2ncnc3cc(N4CCOCC4)ccc23)ccc1Cl (stereo not drawn) [Example 408, [2-Chloro-5-(7-morpholin-4-yl-quinazolin-4-yl)-phenyl]-(5-methoxy-pyrimidin-4-yl)-methanol]",–,3 to 7 nM,500 to 5000 nM,10 to 15 µM
"COc1cncnc1C(O)c1cc(-c2ncnc3cc(N4CCOCC4)ccc23)ccc1Cl (stereo not drawn) [Example 409, [2-Chloro-5-(7-morpholin-4-yl-quinazolin-4-yl)-phenyl]-(5-methoxy-pyrimidin-4-yl)-methanol]",> 25 µM,3 to 7 nM,500 to 5000 nM,–
"COc1nccnc1C(O)c1cc(-c2ncnc3cc(N4CCOCC4)ccc23)ccc1Cl (stereo not drawn) [Example 410, [2-Chloro-5-(7-morpholin-4-yl-quinazolin-4-yl)-phenyl]-(3-methoxy-pyrazin-2-yl)-methanol]",< 10 µM,< 3 nM,< 500 nM,–
"COc1nccnc1[C@@H](O)c1cc(-c2ncnc3cc(N4CCOCC4)ccc23)ccc1Cl [Example 411, (S)-[2-Chloro-5-(7-morpholin-4-yl-quinazolin-4-yl)-phenyl]-(3-methoxy-pyrazin-2-yl)-methanol]",–,3 to 7 nM,500 to 5000 nM,10 to 15 µM
"OC(c1cc(-c2ncnc3cc(N4CCOCC4)ccc23)ccc1Cl)c1ncncc1F (stereo not drawn) [Example 412, [2-Chloro-5-(7-morpholin-4-yl-quinazolin-4-yl)-phenyl]-(5-fluoro-pyrimidin-4-yl)-methanol]",–,7 to 30 nM,5000 to 10000 nM,15 to 25 µM
"COc1cncnc1C(O)c1cc(-c2ncnc3cc(N4CCOCC4)ccc23)ccc1Cl (stereo not drawn) [Example 413, [2-Chloro-5-(7-morpholin-4-yl-quinazolin-4-yl}-phenyl]-(5-methoxy-pyrimidin-4-yl)-methanol]",–,3 to 7 nM,500 to 5000 nM,15 to 25 µM
"OC(c1cc(-c2ncnc3cc(N4CCOCC4)ccc23)ccc1Cl)c1ncnc2ccoc12 (stereo not drawn) [Example 414, [2-Chloro-5-(7-morpholin-4-yl-quinazolin-4-yl)-phenyl]furo[3,2-d}-pyrimidin-4-yl-methanol]",–,7 to 30 nM,< 500 nM,10 to 15 µM
"OC(c1cc(-c2ncnc3cc(N4CCOCC4)ccc23)ccc1Cl)c1ncnc2ccoc12 (stereo not drawn) [Example 415, [2-Chloro-5-(7-morpholin-4-yl-quinazolin-4-yl)-phenyl]furo[3,2-d}-pyrimidin-4-yl-methanol]",10 to 15 µM,3 to 7 nM,< 500 nM,–
"OC(c1cc(-c2ncnc3cc(N4CCOCC4)ccc23)ccc1Cl)c1ncnc2occc12 (stereo not drawn) [Example 416, [2-Chloro-5-(7-morpholin-4-yl-quinazolin-4-yl)-phenyl]furo[2,3-d}-pyrimidin-4-yl-methanol]",–,3 to 7 nM,500 to 5000 nM,10 to 15 µM
"Cc1cncnc1C(O)c1cc(-c2ncnc3cc(N4CCOCC4)ccc23)ccc1Cl (stereo not drawn) [Example 417, [2-Chloro-5-(7-morpholin-4-yl-quinazolin-4-yl)-phenyl]-(5-methyl-pyrimidin-4-yl)-methanol]",–,7 to 30 nM,500 to 5000 nM,15 to 25 µM
"Cc1cncnc1C(O)c1cc(-c2ncnc3cc(N4CCOCC4)ccc23)ccc1Cl (stereo not drawn) [Example 418, [2-Chloro-5-(7-morpholin-4-yl-quinazolin-4-yl)-phenyl]-(5-methyl-pyrimidin-4-yl)-methanol]",> 25 µM,7 to 30 nM,500 to 5000 nM,–
"Cc1cncnc1C(O)c1cc(-c2ncnc3cc(N4CCOCC4)ccc23)ccc1Cl (stereo not drawn) [Example 419, [2-Chloro-5-(7-morpholin-4-yl-quinazolin-4-yl)-phenyl]-(5-methyl-pyrimidin-4-yl)-methanol]",15 to 25 µM,7 to 30 nM,500 to 5000 nM,–
"Cn1cnc2c(C(O)c3ccc(F)c(-c4ncnc5cc(N6CCOCC6)ccc45)c3)ncnc21 (stereo not drawn) [Example 420, [4-Fluoro-3-(7-morpholin-4-yl-quinazolin-4-yl)-phenyl]-(9-methyl-9H-purin-6-yl)-methanol]",> 25 µM,7 to 30 nM,5000 to 10000 nM,–
